Measurements taken from US20160046579A1, “THERAPEUTIC COMPOUNDS AND COMPOSITIONS” (AGIOS PHARMACEUTICALS, INC., priority 2013, published 2016).

Experiments:
[1] = target: T1, wt PKR (Homo sapiens, UniProt P30613); experiment: PKR Mutant Assay, dose response (AC50), wild type PKR enzyme; format: biochemical; conditions: wild type PKR enzyme
Experimental: (§1) • PKR or PKR mutant enzyme solution was diluted in assay buffer. • 2 μL of test compound was added into wells first, and then 180 μL reaction mix was added. • Reactions mixture with test compound was assembled except for ADP, and plates were stored for 60 minutes at room temperature. • 20 uL ADP was added to start reaction at room temperature and reaction progress was measured as changes in absorbance at 340 nm wavelength at room temperature.
(§2) Test Compound Preparation: • Test compound stock was made at 100× concentration in 100% DMSO (10 mM) • 1 to 3 dilutions were made for 11 points (i.e. 50 μl of first concentration added to 100 μl 100% DMSO to yield 3.33 mM, 50 μl of this added to 100 μl DMSO to yield 1.11 mM, and so forth) • 1 to 100 dilution into assay (2 μl in 200 μl) yielded starting concentration of 100 μM, decreasing 3 fold for 11 points.

[2] = target: PKR R510Q (Homo sapiens, UniProt P30613, R510Q); experiment: PKR Mutant Assay, dose response (AC50), PKR R510Q; format: biochemical; conditions: PKR R510Q mutant enzyme
Experimental: as §1, §2

[3] = target: PKR R532W (Homo sapiens, UniProt P30613, R532W); experiment: PKR Mutant Assay, dose response (AC50), PKR R532W; format: biochemical; conditions: PKR R532W mutant enzyme
Experimental: as §1, §2

[4] = target: T1, wt PKR; experiment: wt PKR cell based assay

Sequence of PKR R510Q (P30613 whole entry R510Q): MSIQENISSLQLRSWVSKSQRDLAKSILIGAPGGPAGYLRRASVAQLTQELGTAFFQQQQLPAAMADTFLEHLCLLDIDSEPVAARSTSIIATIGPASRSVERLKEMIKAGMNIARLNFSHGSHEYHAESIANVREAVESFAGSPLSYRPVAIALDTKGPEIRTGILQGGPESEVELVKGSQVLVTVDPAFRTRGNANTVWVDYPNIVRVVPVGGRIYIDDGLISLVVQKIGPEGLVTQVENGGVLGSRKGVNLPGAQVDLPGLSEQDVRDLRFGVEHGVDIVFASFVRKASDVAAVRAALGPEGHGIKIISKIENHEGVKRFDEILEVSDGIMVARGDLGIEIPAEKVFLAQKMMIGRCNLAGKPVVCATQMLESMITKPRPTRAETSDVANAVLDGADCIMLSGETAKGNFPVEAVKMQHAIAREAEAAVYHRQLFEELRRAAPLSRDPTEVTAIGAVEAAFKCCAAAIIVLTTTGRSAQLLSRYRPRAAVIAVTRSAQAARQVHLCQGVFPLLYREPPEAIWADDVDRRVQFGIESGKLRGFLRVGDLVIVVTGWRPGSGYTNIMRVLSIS
Sequence of PKR R532W (P30613 whole entry R532W): as the sequence (P30613 whole entry R510Q) above, with Q510R, R532W counted along it
T1 sequence (P30613 whole entry): as the sequence (P30613 whole entry R510Q) above, with Q510R counted along it

| SMILES | AC50 [1] [nM] | AC50 [2] [nM] | AC50 [3] [nM] | AC50 [4] [nM] |
| --- | --- | --- | --- | --- |
| Cn1nccc1CC1(O)CCN(C(=O)c2ccc(NS(=O)(=O)c3cccc4nccnc34)cc2)CC1 [Compound 508, N-(4-(4-hydroxy-4-((1-methyl-1H-pyrazol-5-yl)methyl)piperidine-1-carbonyl)phenyl)quinoxaline-5-sulfonamide] | < 100 | 101 to 1000 | < 100 | < 100 |
| Cc1cc(CC2(O)CCN(C(=O)c3ccc(NS(=O)(=O)c4cccc5nccnc45)cc3)CC2)sn1 [Compound 511, N-(4-(4-hydroxy-4-((3-methylisothiazol-5-yl)methyl)piperidine-1-carbonyl)phenyl)quinoxaline-5-sulfonamide] | < 100 | 101 to 1000 | < 100 | 101 to 1000 |
| Cc1n[nH]c(C)c1CC1(O)CCN(C(=O)c2ccc(NS(=O)(=O)c3cccc4nccnc34)cc2)CC1 [Compound 512, N-(4-(4-((3,5-dimethyl-1H-pyrazol-4-yl)methyl)-4-hydroxypiperidine-1-carbonyl)phenyl)quinoxaline-5-sulfonamide] | < 100 | 101 to 1000 | < 100 | 101 to 1000 |
| CC(C)CC1(O)CCN(C(=O)c2ccc(NS(=O)(=O)c3cncc4cccnc34)cc2)CC1 [Compound 513, N-(4-(4-hydroxy-4-isobutylpiperidine-1-carbonyl)phenyl)-1,6-naphthyridine-8-sulfonamide] | < 100 | 101 to 1000 | < 100 | < 100 |
| Cc1n[nH]c(C)c1CC1(O)CCN(C(=O)c2ccc(NS(=O)(=O)c3cccc4scnc34)cc2)CC1 [Compound 514] | < 100 | 101 to 1000 | < 100 | 101 to 1000 |
| Cc1cc(C2(O)CCN(C(=O)c3ccc(NS(=O)(=O)c4cccc5nccnc45)cc3)CC2)sn1 [Compound 518, N-(4-(4-hydroxy-4-(3-methylisothiazol-5-yl)piperidine-1-carbonyl)phenyl)quinoxaline-5-sulfonamide] | < 100 | 101 to 1000 | < 100 | 101 to 1000 |
| Cc1nscc1CC1(O)CCN(C(=O)c2ccc(NS(=O)(=O)c3cccc4ncsc34)cc2)CC1 [Compound 519, N-(4-(4-hydroxy-4-((3-methylisothiazol-4-yl)methyl)piperidine-1-carbonyl)phenyl)benzo[d]thiazole-7-sulfonamide] | < 100 | < 100 | < 100 | < 100 |
| Cc1noc(C)c1CC1(O)CCN(C(=O)c2ccc(NS(=O)(=O)c3cccc4scnc34)cc2)CC1 [Compound 520, N-(4-(4-((3,5-dimethylisoxazol-4-yl)methyl)-4-hydroxypiperidine-1-carbonyl)phenyl)benzo[d]thiazole-4-sulfonamide] | < 100 | 101 to 1000 | < 100 | 101 to 1000 |
| Cc1noc(C)c1CC1(O)CCN(C(=O)c2ccc(NS(=O)(=O)c3cccc4nccnc34)cc2)CC1 [Compound 521, N-(4-(4-((3,5-dimethylisoxazol-4-yl)methyl)-4-hydroxypiperidine-1-carbonyl)phenyl)quinoxaline-5-sulfonamide] | < 100 | 101 to 1000 | < 100 | < 100 |
| O=C(c1ccc(NS(=O)(=O)c2cccc3scnc23)cc1)N1CCC(O)(c2sncc2Cl)CC1 [Compound 522, N-(4-(4-(4-chloroisothiazol-5-yl)-4-hydroxypiperidine-1-carbonyl)phenyl)benzo[d]thiazole-4-sulfonamide] | < 100 | 101 to 1000 | < 100 | < 100 |
| O=C(c1ccc(NS(=O)(=O)c2cccc3nccnc23)cc1)N1CCC(O)(Cc2c(O)n[nH]c2C(F)(F)F)CC1 [Compound 523] | 101 to 1000 | 1010 to 10000 | 101 to 1000 | 101 to 1000 |
| CC(C)CC1(OC(=O)OCOP(=O)(O)O)CCN(C(=O)c2ccc(NS(=O)(=O)c3cccc4scnc34)cc2)CC1 [Compound 526] | 101 to 1000 | 101 to 1000 | 101 to 1000 | < 100 |
| CC(C)CC1(OC(=O)OCOP(=O)(O)O)CCN(C(=O)c2ccc(NS(=O)(=O)c3cccc4nccnc34)cc2)CC1 [Compound 527, 4-isobutyl-1-(4-(quinoxaline-5-sulfonamido)benzoyl)piperidin-4-yl phosphonooxymethyl carbonate] | 101 to 1000 | 101 to 1000 | 101 to 1000 | < 100 |
